In patent publication US7265120B2, “Pyrazine derivatives and pharmaceutical use thereof” (Astellas Pharma Inc., priority 2004, dated 2007):

| SMILES | melting point |
| --- | --- |
| CC(C)n1nc(-c2nc(C#C[Si](C)(C)C)c(N)nc2-c2ccccc2)ccc1=O | 213 to 215 °C |
| CC(C)n1nc(-c2nc(C3=CCN(C)CC3)c(N)nc2-c2ccccc2)ccc1=O | 209 to 211 °C |
| CC(C)n1nc(-c2ncc(O)nc2-c2ccccc2)ccc1=O [Example 1, 6-(5-hydroxy-3-phenyl-2-pyrazinyl)-2-isopropyl-3(2H)-pyridazinone] | 225 to 227 °C |
| Cc1nc(-c2ccc(=O)n(C(C)C)n2)c(-c2ccccc2)nc1O [Example 2, 6-(5-Hydroxy-6-methyl-3-phenyl-2-pyrazinyl)-2-isopropyl-3(2H)-pyridazinone] | > 250 °C |
| Cc1nc(-c2ccc(=O)n(C(C)C)n2)c(-c2ccccc2)nc1N [Example 3, 6-(5-amino-6-methyl-3-phenyl-2-pyrazinyl)-2-isopropyl-3(2H)-pyridazinone] | 208 to 209.5 °C |
| CC(C)n1nc(-c2nc(C#N)c(C#N)nc2-c2ccccc2)ccc1=O [Example 4, 5-(1-isopropyl-6-oxo-1,6-dihydro-3-pyridazinyl)-6-phenyl-2,3-pyrazinedicarbonitrile] | 201 to 202 °C |
| CC(C)n1nc(-c2nc(C#N)c(N)nc2-c2ccccc2)ccc1=O [Example 6, 3-amino-6-(1-isopropyl-6-oxo-1,6-dihydro-3-pyridazinyl)-5-phenyl-2-pyrazinecarbonitrile] | 231 to 233 °C |
| CC(C)n1nc(-c2nc(C(N)=O)c(N)nc2-c2ccccc2)ccc1=O [Example 7, 3-amino-6-(1-isopropyl-6-oxo-1,6-dihydro-3-pyridazinyl)-5-phenyl-2-pyrazinecarboxamide] | 224 to 226 °C |
| CC(C)n1nc(-c2nc(C(=O)O)c(N)nc2-c2ccccc2)ccc1=O [Example 8, 3-amino-6-(1-isopropyl-6-oxo-1,6-dihydro-3-pyridazinyl)-5-phenyl-2-pyrazinecarboxylic acid] | 233 to 235 °C |
| CC(C)n1nc(-c2ncc(N)nc2-c2ccccc2)ccc1=O [Example 9, 6-(5-amino-3-phenyl-2-pyrazinyl)-2-isopropyl-3(2H)-pyridazinone] | 204 to 206 °C |
| CCn1nc(-c2nc(C#N)c(C#N)nc2-c2ccccc2)ccc1=O [Example 11, 5-(1-Ethyl-6-oxo-1,6-dihydro-3-pyridazinyl)-6-phenyl-2,3-pyrazinedicarbonitrile] | 201 to 203 °C |
| CCn1nc(-c2nc(C#N)c(NCc3ccc(OC)cc3)nc2-c2ccccc2)ccc1=O [Example 12, 6-(1-Ethyl-6-oxo-1,6-dihydro-3-pyridazinyl)-3-[(4-methoxybenzyl)amino]-5-phenyl-2-pyrazinecarbonitrile] | 165.5 to 167.5 °C |
| CCn1nc(-c2nc(C#N)c(N)nc2-c2ccccc2)ccc1=O [Example 13, 3-Amino-6-(1-ethyl-6-oxo-1,6-dihydro-3-pyridazinyl)-5-phenyl-2-pyrazinecarbonitrile] | > 250 °C |
| CCn1nc(-c2nc(C(N)=O)c(N)nc2-c2ccccc2)ccc1=O [Example 14, 3-Amino-6-(1-ethyl-6-oxo-1,6-dihydro-3-pyridazinyl)-5-phenyl-2-pyrazinecarboxamide] | > 250 °C |
| Cn1nc(-c2nc(C#N)c(C#N)nc2-c2ccccc2)ccc1=O [Example 15, 5-(1-Methyl-6-oxo-1,6-dihydro-3-pyridazinyl)-6-phenyl-2,3-pyrazinedicarbonitrile] | 210 to 212 °C |
| COc1ccc(CNc2nc(-c3ccccc3)c(-c3ccc(=O)n(C)n3)nc2C#N)cc1 [Example 16, 3-[(4-Methoxybenzyl)amino]-6-(1-methyl-6-oxo-1,6-dihydro-3-pyridazinyl)-5-phenyl-2-pyrazinecarbonitrile] | 166.5 to 168 °C |
| Cn1nc(-c2nc(C(N)=O)c(N)nc2-c2ccccc2)ccc1=O [Example 18, 3-Amino-6-(1-methyl-6-oxo-1,6-dihydro-3-pyridazinyl)-5-phenyl-2-pyrazinecarboxamide] | > 250 °C |
| Cn1nc(-c2nc(C(=O)O)c(N)nc2-c2ccccc2)ccc1=O [Example 19, 3-Amino-6-(1-methyl-6-oxo-1,6-dihydro-3-pyridazinyl)-5-phenyl-2-pyrazinecarboxylic acid] | 238 °C (dec.) |
| Cn1nc(-c2ncc(N)nc2-c2ccccc2)ccc1=O [Example 20, 6-(5-Amino-3-phenyl-2-pyrazinyl)-2-methyl-3(2H)-pyridazinone] | 202 to 204 °C |
| CC(C)n1nc(-c2nc(N)c(C#N)nc2-c2ccccc2)ccc1=O [Example 21, 3-Amino-5-(1-isopropyl-6-oxo-1,6-dihydro-3-pyridazinyl)-6-phenyl-2-pyrazinecarbonitrile] | 238 to 241 °C |

| SMILES | melting point |
| --- | --- |
| COc1nc(-c2ccccc2)c(-c2ccc(=O)n(C(C)C)n2)nc1C#N [Example 22, 6-(1-isopropyl-6-oxo-1,6-dihydro-3-pyridazinyl)-3-methoxy-5-phenyl-2-pyrazinecarbonitrile] | 170 to 172 °C |
| CC(C)n1nc(-c2nc(C#N)c(C(N)=O)nc2-c2ccccc2)ccc1=O [Example 23, 3-Cyano-5-(1-isopropyl-6-oxo-1,6-dihydro-3-pyridazinyl)-6-phenyl-2-pyrazinecarboxamide] | > 250 °C |
| CC(C)n1nc(-c2nc(C(N)=O)c(C#N)nc2-c2ccccc2)ccc1=O [Example 23, 3-Cyano-6-(1-isopropyl-6-oxo-1,6-dihydro-3-pyridazinyl)-5-phenyl-2-pyrazinecarboxamide] | 195 to 197 °C |
| COC(=O)c1nc(-c2ccc(=O)n(C(C)C)n2)c(-c2ccccc2)nc1OC [Example 24, Methyl 6-(1-isopropyl-6-oxo-1,6-dihydro-3-pyridazinyl)-3-methoxy-5-phenyl-2-pyrazinecarboxylate] | 170 to 171 °C |
| CC(C)n1nc(-c2nc(C#N)c(NC=O)nc2-c2ccccc2)ccc1=O [Example 25, [3-Cyano-5-(1-isopropyl-6-oxo-1,6-dihydro-3-pyridazinyl)-6-phenyl-2-pyrazinyl]formamide] | 198 to 200 °C |
| CC(C)n1nc(-c2nc(NC=O)c(C#N)nc2-c2ccccc2)ccc1=O [Example 25, [3-Cyano-6-(1-isopropyl-6-oxo-1,6-dihydro-3-pyridazinyl)-5-phenyl-2-pyrazinyl]formamide] | 206 to 208 °C |
| CC(C)n1nc(-c2nc(C(N)=S)c(N)nc2-c2ccccc2)ccc1=O [Example 26, 3-amino-6-(1-isopropyl-6-oxo-1,6-dihydro-3-pyridazinyl)-5-phenyl-2-pyrazinecarbothioamide] | > 250 °C |
| Cc1csc(-c2nc(-c3ccc(=O)n(C(C)C)n3)c(-c3ccccc3)nc2N)n1 [Example 27, 6-[5-amino-6-(4-methyl-thiazol-2-yl)-3-phenyl-2-pyrazinyl]-2-isopropyl-3(2H)-pyridazinone] | 238 to 240 °C |
| CC(C)n1nc(-c2nc(-c3nc(-c4ccccc4)cs3)c(N)nc2-c2ccccc2)ccc1=O [Example 28, 6-[5-Amino-3-phenyl-6-(4-phenyl-thiazol-2-yl)-2-pyrazinyl]-2-isopropyl-3(2H)-pyridazinone] | 240 to 242 °C |
| CC(C)n1nc(-c2nc(N)c(C(N)=O)nc2-c2ccccc2)ccc1=O [Example 29, 3-Amino-5-(1-isopropyl-6-oxo-1,6-dihydro-3-pyridazinyl)-6-phenyl-2-pyrazinecarboxamide] | 217 to 220 °C |
| COc1ccc(CNc2nc(-c3ccccc3)c(-c3ccc(=O)n(C(C)C)n3)nc2C(=O)O)cc1 [Example 46, 6-(1-isopropyl-6-oxo-1,6-dihydro-3-pyridazinyl)-3-[(4-methoxybenzyl)amino]-5-phenyl-2-pyrazinecarboxylic acid] | 216.5 to 217 °C |
| COc1ccc(CNc2nc(-c3ccccc3)c(-c3ccc(=O)n(C(C)C)n3)nc2C#N)cc1 [Example 47, 6-(1-isopropyl-6-oxo-1,6-dihydro-3-pyridazinyl)-3-[(4-methoxybenzyl)amino]-5-phenyl-2-pyrazinecarbonitrile] | 89 to 93 °C |
| COc1ccc(CNc2cnc(-c3ccc(=O)n(C(C)C)n3)c(-c3ccccc3)n2)cc1 [Example 49, 2-isopropyl-6-{5-[(4-methoxybenzyl)amino]-3-phenyl-2-pyrazinyl}-3(2H)-pyridazinone] | 138 to 140 °C |
| COc1ccc(CNc2cnc(-c3ccccc3)c(-c3ccc(=O)n(C(C)C)n3)n2)cc1 [Example 49, 2-isopropyl-6-{6-[(4-methoxybenzyl)amino]-3-phenyl-2-pyrazinyl}-3(2H)-pyridazinone] | 173 to 174 °C |
| CC(C)n1nc(-c2nc(N)cnc2-c2ccccc2)ccc1=O [Example 50, 6-(6-amino-3-phenyl-2-pyrazinyl)-2-isopropyl-3(2H)-pyridazinone] | 214 to 217 °C |
| COc1ccc(CN(Cc2ccc(OC)cc2)c2nc(-c3ccccc3)c(-c3ccc(=O)n(C(C)C)n3)nc2C#N)cc1 [Example 51, 3-[bis(4-methoxybenzyl)amino]-6-(1-isopropyl-6-oxo-1,6-dihydro-3-pyridazinyl)-5-phenyl-2-pyrazinecarbonitrile] | 207 to 209 °C |
| COc1ccc(CN(Cc2ccc(OC)cc2)c2nc(-c3ccccc3)c(-c3ccc(=O)n(C(C)C)n3)nc2C(N)=O)cc1 [Example 52, 3-[bis(4-methoxybenzyl)amino]-6-(1-isopropyl-6-oxo-1,6-dihydro-3-pyridazinyl)-5-phenyl-2-pyrazinecarboxamide] | 120 to 122.5 °C |
| CC(C)n1nc(-c2nc(Br)c(N)nc2-c2ccccc2)ccc1=O [Example 53, 6-(5-amino-6-bromo-3-phenyl-2-pyrazinyl)-2-isopropyl-3(2H)-pyridazinone] | 204 to 206 °C |
| CSc1nc(-c2ccc(=O)n(C(C)C)n2)c(-c2ccccc2)nc1N [Example 54, 6-[5-amino-6-(methylthio)-3-phenyl-2-pyrazinyl]-2-isopropyl-3(2H)-pyridazinone] | 211 to 214 °C |
| CC(C)n1nc(-c2nc([S+](C)[O-])c(N)nc2-c2ccccc2)ccc1=O (stereo not shown) [Example 55, 6-[5-amino-6-(methylsulfinyl)-3-phenyl-2-pyrazinyl]-2-isopropyl-3(2H)-pyridazinone] | 225 to 227 °C |
